From paper PMC6588697, “Lugdunin amplifies innate immune responses in the skin in synergy with host- and microbiota-derived factors” (Nature Communications, 2019)
“And” between values parts separate entries of the source, which are not always exact repeats. Identical values can stand only once.

Legend:
Type in all cases: cell-based, human
HTEpCs = test: CXCL8 expression in HTEpCs (qRT-PCR); details: 5 h, two technical replicates
Description: Quantitative reverse transcription-polymerase chain reaction (qRT-PCR) was performed in 10 µL reaction volume with SYBR^TM Green PCR Master Mix (Thermo Fisher) according to the manufacturer’s instructions using a LightCycler 96 (Roche Life Science). The initial denaturation step was at 95 °C for 5 min, followed by 40 cycles with 10 s each for the denaturation step at 95 °C, the annealing at individual temperature, and the elongation at 72 °C. Primer sequences and respective annealing temperatures are listed in Supplementary Table 1. […]
31 g+h+i: HNEpCs (b), HTEpCs (c) or PBMCs (d) were treated with increasing
32 concentrations of lugdunin (grey bars) or 100 ng/mL Pam2Cys or Pam3Cys (white
33 bars) as positive controls for 5 hours and subsequently expression of CXCL8 was
34 analyzed and normalized to actin. Black bar: medium control. Shown is one
35 representative experiment of three independent experiments with two technical
36 replicates +/-s.e.m. Significant differences to control treatments were analyzed by
37 ordinary one-way ANOVA followed by Dunnett’s multiple comparisons test (*P<0.05; […]

HNEpCs = test: Cytokine release into HNEpC supernatant (LEGENDplex / ELISA); details: 5 h, lugdunin 2 µM or Pam2Cys 100 ng/mL, two technical replicates, Fig 1f
PBMCs = test: Cytokine release into PBMC supernatant (LEGENDplex / ELISA); details: 5 h, lugdunin 2 µM or Pam2Cys 100 ng/mL, two technical replicates, Fig 1f
Description: Fig. 1 Lugdunin sensitizes epithelial cells for innate immune defense. a Primary human keratinocytes (PHKs) were pretreated with S. epidermidis conditioned medium (CM), indicated lugdunin concentrations, or the combination of both for 20 h. Subsequently, cells were infected with S. aureus for 1.5 h followed by cell lysis and determination of colony-forming units (CFUs). Shown is one representative experiment of three independent experiments with six technical replicates ± s.e.m. n.s., not significant. b Dorsal skin of mice was pretreated with S. epidermidis CM, 1.5 µg lugdunin alone or in combination with S. epidermidis CM for 24 h. Subsequently, S. aureus CFUs were determined. Horizontal lines represent the mean of each group ± s.e.m. c PHKs were treated with 2 μM lugdunin or with S. epidermidis CM alone or in combination for 20 h and subsequently expression of indicated antimicrobial peptides (AMPs) (respective protein names in brackets) was analyzed and normalized to actin. Shown is one representative experiment of three independent experiments with two technical replicates ± s.e.m. d PHKs were treated with 2 µM lugdunin or 100 ng/mL Pam2Cys for 5 h and subsequently the concentration of indicated cytokines in the supernatant was analyzed by LEGENDplex^TM (BioLegend). […]

Substance: Lugdunin
- CXCL8 fold induction (HTEpCs; lugdunin 0.5 µM, sheet Supp Fig 1g): 1.537 and 1.231
- CXCL8 fold induction (HTEpCs; lugdunin 1 µM): 4.112 and 4.228
- CXCL8 fold induction (HTEpCs; lugdunin 2 µM): 16.564 and 16
- CXCL8 fold induction (HTEpCs; lugdunin 3 µM): 18.001 and 14.929
- CXCL8 fold induction (HTEpCs; lugdunin 5 µM): 23.264 and 22.316
- CXCL8 fold induction (HTEpCs; lugdunin 10 µM): 16.056 and 17.328
- CXCL8 concentration in supernatant (HNEpCs): 421.035 and 417.001
- CXCL8 concentration in supernatant (PBMCs): 231.761 and 233.451
